This is an account of results in ChEMBL document CHEMBL3632610, “Expanding the structural diversity of Bcr-Abl inhibitors: Dibenzoylpiperazin incorporated with 1H-indazol-3-amine” (Eur J Med Chem, 2015).

The target in assay [1] is Bcr/Abl fusion protein (Homo sapiens, UniProt P00519, T315I). Nature of the assay: Inhibition of Bcr-Abl T315I mutant (unknown origin) by ADP-Glo assay. The class given is protein assay.
The test system of assay [2] is K562. Nature of the assay: Cytotoxicity against human K562 cells expressing Bcr-Abl assessed as growth inhibition after 48 hrs by MTT assay. The settings on record: K562, 48 h.
Assay [3] has as its target Bcr/Abl fusion protein (Homo sapiens, UniProt P00519). Nature of the assay: Inhibition of wild type Bcr-Abl (unknown origin) by ADP-Glo assay. The class given is protein assay.

In the case of `COc1cc(OC)cc(C(=O)N2CCN(C(=O)c3ccc(-c4cccc5[nH]nc(N)c45)cc3)CC2)c1`, the 50% inhibitory concentration (IC50) in assay [1] is above 100 µM; in assay [2], 105 µM.
Regarding `Nc1n[nH]c2cccc(-c3ccc(C(=O)N4CCN(C(=O)c5ccc(Cl)cc5Cl)CC4)cc3)c12`, the IC50 in assay [1] amounted to 0.45 µM; in assay [3], 14 nM; in assay [2] it was 6.5 µM.
The corresponding values for `Nc1n[nH]c2cccc(-c3ccc(C(=O)N4CCN(C(=O)c5cccc(F)c5)CC4)cc3)c12` are 2.07 µM, 86 nM and 30.2 µM.
Regarding `COc1cccc(C(=O)N2CCN(C(=O)c3ccc(-c4cccc5[nH]nc(N)c45)cc3)CC2)c1`, the IC50 in assay [1] is above 100 µM; in assay [3] it was 49200 nM; in assay [2], 9.6 µM.
Consider `Nc1n[nH]c2cccc(-c3ccc(C(=O)N4CCN(C(=O)c5ccccc5Cl)CC4)cc3)c12`, for which the IC50 in assay [1] is 3.41 µM; in assay [3], 84 nM; in assay [2] it was 53.7 µM.
Regarding `Nc1n[nH]c2cccc(-c3ccc(C(=O)N4CCN(C(=O)c5ccccc5Br)CC4)cc3)c12`, the IC50 in assay [1] came to 0.74 µM; in assay [3] it was 180 nM; in assay [2], 47.3 µM.
Taken in the same sequence, the figures for `Nc1n[nH]c2cccc(-c3ccc(C(=O)N4CCN(C(=O)c5cccc(C(F)(F)F)c5)CC4)cc3)c12` were 94.6 µM, 2760 nM and 18.1 µM.
Taken in the same sequence, the figures for `Nc1n[nH]c2cccc(-c3ccc(C(=O)N4CCN(C(=O)c5ccc(F)c(F)c5)CC4)cc3)c12` were 83.5 µM, above 100000 nM and 21.5 µM.
For `COc1ccc(C(=O)N2CCN(C(=O)c3ccc(-c4cccc5[nH]nc(N)c45)cc3)CC2)cc1`, the IC50 is above 100 µM in assay [1], above 100000 nM in assay [3] and 69.7 µM in assay [2].
Taken in the same sequence, the figures for `Cc1cccc(C(=O)N2CCN(C(=O)c3ccc(-c4cccc5[nH]nc(N)c45)cc3)CC2)c1` were above 100 µM, 2370 nM and 21.8 µM.
Taken in the same sequence, the figures for `Nc1n[nH]c2cccc(-c3ccc(C(=O)N4CCN(C(=O)c5ccc(Cl)cc5)CC4)cc3)c12` were 65.6 µM, 1890 nM and 10.5 µM.
Take `COc1ccccc1C(=O)N1CCN(C(=O)c2ccc(-c3cccc4[nH]nc(N)c34)cc2)CC1`: the IC50 in assay [1] is above 100 µM; in assay [3], 22800 nM; in assay [2] it was 32.1 µM.
The corresponding values for `Cc1ccccc1C(=O)N1CCN(C(=O)c2ccc(-c3cccc4[nH]nc(N)c34)cc2)CC1` are above 100 µM, 8560 nM and 17.2 µM.
Taken in the same sequence, the figures for `Nc1n[nH]c2cccc(-c3ccc(C(=O)NCCNC(=O)c4ccc(F)c(F)c4)cc3)c12` were 75.3 µM, 14300 nM and 28.4 µM.
The corresponding values for `Nc1n[nH]c2cccc(-c3ccc(C(=O)NCCNC(=O)c4ccccc4Br)cc3)c12` are 1.04 µM, 31 nM and 13.1 µM.
Take `Cc1ccccc1C(=O)NCCNC(=O)c1ccc(-c2cccc3[nH]nc(N)c23)cc1`: the IC50 was determined as 28.8 µM in assay [1], 18 nM in assay [3] and 8 µM in assay [2].
Taken in the same sequence, the figures for `Nc1n[nH]c2cccc(-c3ccc(C(=O)NCCNC(=O)c4cccc(C(F)(F)F)c4)cc3)c12` were 56.3 µM, 450 nM and 61.9 µM.
For the molecule `Nc1n[nH]c2cccc(-c3ccc(C(=O)NCCNC(=O)c4cccc(F)c4)cc3)c12`, the results for the IC50 in assay [1] and in assay [2] were above 100 µM and 26.9 µM, respectively.
Consider `COc1ccccc1C(=O)NCCNC(=O)c1ccc(-c2cccc3[nH]nc(N)c23)cc1`, for which the IC50 in assay [1] was above 100 µM; in assay [3] it was 250 nM; in assay [2] it was 13.9 µM.
Taken in the same sequence, the figures for `COc1ccc(C(=O)NCCNC(=O)c2ccc(-c3cccc4[nH]nc(N)c34)cc2)cc1` were above 100 µM, above 100000 nM and 258 µM.
In the case of `Cc1nc(Nc2ncc(C(=O)Nc3c(C)cccc3Cl)s2)cc(N2CCN(CCO)CC2)n1` [DASATINIB], the IC50 in assay [2] turned out to be 0.45 µM.
